Results published in patent publication US6369297B1, “Inducible one-component plant gene tagging” (Academia Sinica, priority 2000, dated 2002).

How the values were obtained:
INAc transposition = assay: 5-azacytidine as second inducer of transposition in tobacco seedlings harboring INAc; assay type: in vivo; details: 0.1 mM 5-azacytidine combined with 1 mM SA
Description: Other inducers. Given that 5-azacytidine was recently shown to enhance Ac excision in transformed plants (Scortecci et al., Plant Cell Physiol. 38:336-343, 1997), the use of this agent was examined as a second inducer to trigger transposition events in tobacco seedlings harboring INAc.

[1] = tested on: INAc transposition (PR-1a::TPase); assay: SA induction of INAc transposition in transgenic tobacco calli (luciferase activity of regenerated shoots); assay type: cell-based; details: for shoots exhibiting high luciferase activity: line IK; for shoots with luciferase activity (transposition frequency): lines IA, IC, IM1, IN1, IP1, IR1; for shoots exhibiting luciferase activity out of shoots from SA-treated calli: 0.1 and 1 mM SA pooled
Method: (§1) Assay of reporter gene activities. Luciferase activity was determined as described in Howell et al., “Use of the firefly luciferase gene as a reporter of gene expression in plants,” In: Gelvin et al., eds, Plant Molecular Biology Manual, pp. B8/1-B8/11, Kluwer Academic Publishers, Dordrecht, 1989; using a Lumat LB 9501 luminometer (Berthold, Munich, Germany). For imaging of luciferase activity, hygromycin-resistant (Hyg^R) seedlings were sprayed with luciferin, incubated in the dark for 5 minutes, and then placed under a charge-coupled device camera (ChemiImager 4000; Alpha Innotech, San Leandro, Calif.) for detection of luminescence. Image acquisition and processing were performed with AlphaEase software (Alpha Innotech). Exposure time was 30 minutes.
Induction of INAc transposition. […] The effect of SA on INAc transposition was determined by incubating Hyg^R calli with a diameter of 0.5 to 1 cm for various times on callus regeneration medium containing either 0.1 or 1 mM SA. The calli for the transformed lines IA, IC, and IK were directly divided from the primary regenerated calli, which were large and generated many primary transformed shoots. For transformed lines IF, IM, IN, IP, and IR, the calli were obtained from the primary transformants IF1, IM1, IN1, IP1, and IR1. Leaf disks were excised and incubated on callus regeneration medium to yield enough calli for induction experiments. The calli were treated with 0.1 mM SA for 60 days, or were incubated with 1 mM SA for 10 days and then transferred to normal callus regeneration medium for an additional 50 days. As a control, calli were incubated on normal callus regeneration medium for 60 days. Luciferase activity was measured in the shoots that developed from the calli during incubation and was expressed as −, +, ++, or +++ as described in Table 2.
The numerical values in Table 2 indicate the number of LUC^+ shoots that were regenerated from SA-treated tobacco calli. Symbols denoting the amount of luciferase activity (RLU per microgram of total protein) are as follows: (−) <50 (with no typical luciferase activity kinetics); (+) 50 to 500 RLU; (++) 500 to 5000 RLU; and (+++)>5000 RLU.

[2] = tested on: transformed tobacco plants; assay: Germination frequency of R1 progeny and fruiting of SA-treated transformed tobacco plants; assay type: in vivo
Method: (§2) An important feature of an inducible transposable element is its susceptibility to induced transposition in germinal tissue. Such susceptibility markedly increases the probability of success of transposon tagging in the isolation of important plant genes. To determine the effectiveness of INAc for gene tagging, the induction of transposition in germ-line tissue was studied using 14 transformed tobacco plants from lines IA, IM, IN, and IP. […] The R1 progeny was analyzed by comparing the germination frequency apparent on normal germination medium with that observed on germination medium containing hygromycin B, as summarized in Table 3.
Capsules are designated A through E.

[3] = tested on: INAc transposition (PR-1a::TPase); assay: SA induction of INAc transposition in flowering tissue; LUC assay of HygR R1 progeny; assay type: in vivo, tobacco
Method: as §1
as §2, with “Analysis of SA-induced transposition in R1 progeny of transformed tobacco plants. An” for “An”, “The flowering tissues of plants were sprayed with SA at concentrations of 50, 5, or 1 mM, and after 2 hours these tissues were watered to remove SA. […] The” for “The”
The proportion of LUC^+ seedlings after selection with hygromycin B was next determined. […] A large proportion of LUC^+ seedlings was apparent for transformed plants treated with SA (Table 3).
With this approach, the efficiency of INAc transposition was determined to be 0.2, 0.7, and 3.1% for transformed plants treated with 1, 5, and 50 mM SA, respectively, as shown in Table 4.

Nc1ncn([C@@H]2O[C@H](CO)[C@@H](O)[C@H]2O)c(=O)n1 [5-azacytidine]
transposition efficiency versus treatment with SA alone (INAc transposition): higher

O=C(O)c1ccccc1O [SA, salicylic acid]
shoots exhibiting medium (++) luciferase activity ([1]; 0.1 mM SA, IA and IP1 calli, two out of nine shoots): 22%
shoots exhibiting high luciferase activity ([1]; 0.1 mM SA, 1 out of 9 shoots): 11%
shoots with luciferase activity (transposition frequency) ([1]; 0.1 mM SA, 33 out of 45 shoots): 73%
induction of PR-1a::TPase expression and transposition events ([1]; 0.1 mM SA, tobacco calli): sufficient to induce the expression of PR-1a::TPase
shoots exhibiting medium (++) or high (+++) luciferase activity ([1]; 1 mM SA, IA and IP1 calli, 13 out of 25 shoots): 52%
shoots exhibiting high luciferase activity ([1]; 1 mM SA, 4 out of 16 shoots): 25%
shoots with luciferase activity (transposition frequency) ([1]; 1 mM SA, 27 out of 70 shoots): 39%
luciferase activity in shoots regenerated from callus ([1]; tobacco callus IC, presence of SA): not detected
luciferase activities of induced shoots versus uninduced shoots ([1]; tobacco line IK): slightly higher
shoots exhibiting luciferase activity out of shoots from SA-treated calli ([1]; tobacco line IM1): 11 out of 24
shoots exhibiting luciferase activity out of shoots from SA-treated calli ([1]; tobacco line IN1): 11 out of 20
shoots exhibiting luciferase activity out of shoots from SA-treated calli ([1]; tobacco line IP): 15 out of 17
shoots exhibiting luciferase activity out of shoots from SA-treated calli ([1]; tobacco line IR1): 12 out of 20
frequency of fruiting ([2]; 50 mM SA sprayed on flowering tissues, watered off after 2 hours): marked decrease
germination frequency of R1 progeny ([2]; 50 mM SA, plants IA5 and IP6): low germination frequencies
S: Percentage of Hyg R progeny that were LUC+ ([3]; 1 mM SA, mean of tobacco lines IA, IM, IN, IP): 29%
number of seedlings showing high luciferase activity ([3]; 1 mM SA, of 1021 seedlings): 2 seedlings
S: Percentage of Hyg R progeny that were LUC+ ([3]; 1 mM SA, tobacco line IA): 33%
G: Percentage of Hyg R progeny that exhibited high luciferase activity ([3]; 1 mM SA, tobacco line IA (plant IA7)): 0.4%
S: Percentage of Hyg R progeny that were LUC+ ([3]; 1 mM SA, tobacco line IM): 11%
G: Percentage of Hyg R progeny that exhibited high luciferase activity ([3]; 1 mM SA, tobacco line IM (plant IM4)): 0.4%
G: Percentage of Hyg R progeny that exhibited high luciferase activity ([3]; 1 mM SA, tobacco line IN): 0%
S: Percentage of Hyg R progeny that were LUC+ ([3]; 1 mM SA, tobacco line IN): 9%
G: Percentage of Hyg R progeny that exhibited high luciferase activity ([3]; 1 mM SA, tobacco line IP): 0%
S: Percentage of Hyg R progeny that were LUC+ ([3]; 1 mM SA, tobacco line IP): 62%
HygR seedlings exhibiting high luciferase activity out of seedlings screened ([3]; 5 mM SA, capsule B of plant IP9): 12 out of 202
S: Percentage of Hyg R progeny that were LUC+ ([3]; 5 mM SA, mean of tobacco lines IA, IM, IN, IP): 47%
number of seedlings showing high luciferase activity ([3]; 5 mM SA, of 1000 seedlings): 7 seedlings
S: Percentage of Hyg R progeny that were LUC+ ([3]; 5 mM SA, tobacco line IA): 60%
G: Percentage of Hyg R progeny that exhibited high luciferase activity ([3]; 5 mM SA, tobacco line IA (plant IA6)): 0.4%
S: Percentage of Hyg R progeny that were LUC+ ([3]; 5 mM SA, tobacco line IM): 45%
G: Percentage of Hyg R progeny that exhibited high luciferase activity ([3]; 5 mM SA, tobacco line IM (plant IM5)): 0.8%
G: Percentage of Hyg R progeny that exhibited high luciferase activity ([3]; 5 mM SA, tobacco line IN): 0%
S: Percentage of Hyg R progeny that were LUC+ ([3]; 5 mM SA, tobacco line IN): 15%
S: Percentage of Hyg R progeny that were LUC+ ([3]; 5 mM SA, tobacco line IP): 68%
G: Percentage of Hyg R progeny that exhibited high luciferase activity ([3]; 5 mM SA, tobacco line IP (plant IP9)): 1.6%
S: Percentage of Hyg R progeny that were LUC+ ([3]; 50 mM SA, mean of tobacco lines IA, IP): 75%
number of seedlings showing high luciferase activity ([3]; 50 mM SA, of 32 seedlings): 1 seedling
S: Percentage of Hyg R progeny that were LUC+ ([3]; 50 mM SA, tobacco line IA): 70%
G: Percentage of Hyg R progeny that exhibited high luciferase activity ([3]; 50 mM SA, tobacco line IA (plant IA5)): 3.7%
G: Percentage of Hyg R progeny that exhibited high luciferase activity ([3]; 50 mM SA, tobacco line IP): 0%
S: Percentage of Hyg R progeny that were LUC+ ([3]; 50 mM SA, tobacco line IP): 100%
effect of SA concentration on frequency of LUC+ seedlings / transposition events in floral tissues ([3]; 1, 5, 50 mM SA): dose-dependent manner
LUC assay: LUC+ seedlings (activity class)/HygR seedlings assayed ([3]; plant 1M5, flowers sprayed 5 mM SA, R1 progeny, capsules A-E in successive rows): 30+152
seedlings exhibiting luciferase activity ([3]; plants exposed to SA (1, 5 or 50 mM) pooled, 785 out of 2053 seedlings): 38%
number of seedlings showing high luciferase activity ([3]; plants exposed to SA (1, 5 or 50 mM) pooled, of 2053 seedlings): 10 seedlings
